According to patent US20240301409A1, “Chemically Modified Small Activating RNA” (RACTIGEN THERAPEUTICS, priority 2021, published 2024):

System: T24 cells
Assay: Cellular proliferation assay (CCK8) in T24 cells, alone and combined with Mitomycin C or valrubicin
Assay type: cell-based, human
In short: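 Cells transfected with saRNA RAG1-40-31 (0.1–50 nM) for 24 h, then Mitomycin C or valrubicin (1–10000 nM) added in paired concentrations; single-agent saRNA at 10 nM for 72 h. Viability by CCK8 absorbance at 450 nm after 1 h at 37 °C, as % of blank transfection control.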

RAG1-40-31: saRNA duplex: sense fCfCAACUCAUUCUCCAAG*U*C (SEQ ID NO 16); antisense U*A*fCfUfUGGAGAAfUGAGfUfUGG*fC*A (SEQ ID NO 12) (sense CCAACUCAUUCUCCAAGUC; antisense UACUUGGAGAAUGAGUUGGCA; 2'-F and phosphorothioate modifications; modified_base (1)..(2) (1,2)=2′-fluoro; modified_base (17)..(19) (17,18,19)=phosphorothioate (PS) backbone modification; modified_base (2)..(21) (2,3,19,20,21)=phosphorothioate (PS) backbone modification; modified_base (3)..(20) (3,4,5,12,16,17,20)=2′-fluoro)
Relative proliferation proportion of T24 cells (RAG1-40-31 0.1 nM + MMC 1 nM): 93.6%
Relative proliferation proportion of T24 cells (RAG1-40-31 0.1 nM + MMC 10 nM): 94.5%
Relative proliferation proportion of T24 cells (RAG1-40-31 0.1 nM + MMC 100 nM): 63.3%
Relative proliferation proportion of T24 cells (RAG1-40-31 0.1 nM + MMC 1000 nM): 17.6%
Relative proliferation proportion of T24 cells (RAG1-40-31 0.1 nM + MMC 10000 nM): 5.6%
Relative proliferation proportion of T24 cells (RAG1-40-31 0.1 nM + valrubicin 1 nm): 96.3%
Relative proliferation proportion of T24 cells (RAG1-40-31 0.1 nM + valrubicin 10 nm): 97.8%
Relative proliferation proportion of T24 cells (RAG1-40-31 0.1 nM + valrubicin 100 nm): 93.4%
Relative proliferation proportion of T24 cells (RAG1-40-31 0.1 nM + valrubicin 1000 nm): 59.6%
Relative proliferation proportion of T24 cells (RAG1-40-31 0.1 nM + valrubicin 10000 nm): 18.9%
Relative proliferation proportion of T24 cells (RAG1-40-31 0.1 nM, Control (no MMC)): 97.9%
Relative proliferation proportion of T24 cells (RAG1-40-31 0.1 nM, Control (no valrubicin)): 93.5%
Relative proliferation proportion of T24 cells (RAG1-40-31 0.5 nM + MMC 1 nM): 90.1%
Relative proliferation proportion of T24 cells (RAG1-40-31 0.5 nM + MMC 10 nM): 90.0%
Relative proliferation proportion of T24 cells (RAG1-40-31 0.5 nM + MMC 100 nM): 59.8%
Relative proliferation proportion of T24 cells (RAG1-40-31 0.5 nM + MMC 1000 nM): 16.8%
Relative proliferation proportion of T24 cells (RAG1-40-31 0.5 nM + MMC 10000 nM): 5.5%
Relative proliferation proportion of T24 cells (RAG1-40-31 0.5 nM + valrubicin 1 nm): 91.3%
Relative proliferation proportion of T24 cells (RAG1-40-31 0.5 nM + valrubicin 10 nm): 94.3%
Relative proliferation proportion of T24 cells (RAG1-40-31 0.5 nM + valrubicin 100 nm): 91.4%
Relative proliferation proportion of T24 cells (RAG1-40-31 0.5 nM + valrubicin 1000 nm): 51.8%
Relative proliferation proportion of T24 cells (RAG1-40-31 0.5 nM + valrubicin 10000 nm): 19.5%
Relative proliferation proportion of T24 cells (RAG1-40-31 0.5 nM, Control (no MMC)): 91.7%
Relative proliferation proportion of T24 cells (RAG1-40-31 0.5 nM, Control (no valrubicin)): 84.8%
Relative proliferation proportion of T24 cells (RAG1-40-31 1 nM + MMC 1 nM): 81.9%
Relative proliferation proportion of T24 cells (RAG1-40-31 1 nM + MMC 10 nM): 78.2%
Relative proliferation proportion of T24 cells (RAG1-40-31 1 nM + MMC 100 nM): 55.6%
Relative proliferation proportion of T24 cells (RAG1-40-31 1 nM + MMC 1000 nM): 14.7%
Relative proliferation proportion of T24 cells (RAG1-40-31 1 nM + MMC 10000 nM): 5.4%
Relative proliferation proportion of T24 cells (RAG1-40-31 1 nM + valrubicin 1 nm): 76.0%
Relative proliferation proportion of T24 cells (RAG1-40-31 1 nM + valrubicin 10 nm): 71.3%
Relative proliferation proportion of T24 cells (RAG1-40-31 1 nM + valrubicin 100 nm): 67.6%
Relative proliferation proportion of T24 cells (RAG1-40-31 1 nM + valrubicin 1000 nm): 49.6%
Relative proliferation proportion of T24 cells (RAG1-40-31 1 nM + valrubicin 10000 nm): 16.6%
Relative proliferation proportion of T24 cells (RAG1-40-31 1 nM, Control (no MMC)): 85.9%
Relative proliferation proportion of T24 cells (RAG1-40-31 1 nM, Control (no valrubicin)): 79.7%
Relative proliferation proportion of T24 cells (RAG1-40-31 5 nM + MMC 1 nM): 37.4%
Relative proliferation proportion of T24 cells (RAG1-40-31 5 nM + MMC 10 nM): 36.3%
Relative proliferation proportion of T24 cells (RAG1-40-31 5 nM + MMC 100 nM): 26.0%
Relative proliferation proportion of T24 cells (RAG1-40-31 5 nM + MMC 1000 nM): 7.7%
Relative proliferation proportion of T24 cells (RAG1-40-31 5 nM + MMC 10000 nM): 3.1%
Relative proliferation proportion of T24 cells (RAG1-40-31 5 nM + valrubicin 1 nm): 37.2%
Relative proliferation proportion of T24 cells (RAG1-40-31 5 nM + valrubicin 10 nm): 33.3%
Relative proliferation proportion of T24 cells (RAG1-40-31 5 nM + valrubicin 100 nm): 42.1%
Relative proliferation proportion of T24 cells (RAG1-40-31 5 nM + valrubicin 1000 nm): 25.7%
Relative proliferation proportion of T24 cells (RAG1-40-31 5 nM + valrubicin 10000 nm): 8.0%
Relative proliferation proportion of T24 cells (RAG1-40-31 5 nM, Control (no MMC)): 42.1%
Relative proliferation proportion of T24 cells (RAG1-40-31 5 nM, Control (no valrubicin)): 38.5%
Relative proliferation proportion of T24 cells (RAG1-40-31 10 nM + MMC 1 nM): 19.8%
Relative proliferation proportion of T24 cells (RAG1-40-31 10 nM + MMC 10 nM): 27.0%
Relative proliferation proportion of T24 cells (RAG1-40-31 10 nM + MMC 100 nM): 16.7%
Relative proliferation proportion of T24 cells (RAG1-40-31 10 nM + MMC 1000 nM): 5.3%
Relative proliferation proportion of T24 cells (RAG1-40-31 10 nM + MMC 10000 nM): 2.5%
Relative proliferation proportion of T24 cells (RAG1-40-31 10 nM + valrubicin 1 nm): 27.2%
Relative proliferation proportion of T24 cells (RAG1-40-31 10 nM + valrubicin 10 nm): 23.3%
Relative proliferation proportion of T24 cells (RAG1-40-31 10 nM + valrubicin 100 nm): 26.9%
Relative proliferation proportion of T24 cells (RAG1-40-31 10 nM + valrubicin 1000 nm): 21.7%
Relative proliferation proportion of T24 cells (RAG1-40-31 10 nM + valrubicin 10000 nm): 5.1%
Relative proliferation proportion of T24 cells (RAG1-40-31 10 nM, Control (no MMC)): 22.0%
Relative proliferation proportion of T24 cells (RAG1-40-31 10 nM, Control (no valrubicin)): 23.9%
Relative proliferation proportion of T24 cells (RAG1-40-31 25 nM + MMC 1 nM): 15.4%
Relative proliferation proportion of T24 cells (RAG1-40-31 25 nM + MMC 10 nM): 20.9%
Relative proliferation proportion of T24 cells (RAG1-40-31 25 nM + MMC 100 nM): 12.4%
Relative proliferation proportion of T24 cells (RAG1-40-31 25 nM + MMC 1000 nM): 4.1%
Relative proliferation proportion of T24 cells (RAG1-40-31 25 nM + MMC 10000 nM): 1.9%
Relative proliferation proportion of T24 cells (RAG1-40-31 25 nM + valrubicin 1 nm): 16.5%
Relative proliferation proportion of T24 cells (RAG1-40-31 25 nM + valrubicin 10 nm): 20.4%
Relative proliferation proportion of T24 cells (RAG1-40-31 25 nM + valrubicin 100 nm): 19.5%
Relative proliferation proportion of T24 cells (RAG1-40-31 25 nM + valrubicin 1000 nm): 13.2%
Relative proliferation proportion of T24 cells (RAG1-40-31 25 nM + valrubicin 10000 nm): 3.4%
Relative proliferation proportion of T24 cells (RAG1-40-31 25 nM, Control (no MMC)): 13.6%
Relative proliferation proportion of T24 cells (RAG1-40-31 25 nM, Control (no valrubicin)): 15.1%
Relative proliferation proportion of T24 cells (RAG1-40-31 50 nM + MMC 1 nM): 20.1%
Relative proliferation proportion of T24 cells (RAG1-40-31 50 nM + MMC 10 nM): 19.8%
Relative proliferation proportion of T24 cells (RAG1-40-31 50 nM + MMC 100 nM): 10.8%
Relative proliferation proportion of T24 cells (RAG1-40-31 50 nM + MMC 1000 nM): 4.2%
Relative proliferation proportion of T24 cells (RAG1-40-31 50 nM + MMC 10000 nM): 2.1%
Relative proliferation proportion of T24 cells (RAG1-40-31 50 nM + valrubicin 1 nm): 18.4%
Relative proliferation proportion of T24 cells (RAG1-40-31 50 nM + valrubicin 10 nm): 18.8%
Relative proliferation proportion of T24 cells (RAG1-40-31 50 nM + valrubicin 100 nm): 18.7%
